Data reported in paper PMC3670040, “Structure of Lipid Kinase p110β/p85β Elucidates an Unusual SH2-Domain-Mediated Inhibitory Mechanism” (Molecular Cell, 2011).
Square brackets hold non-standard residues; d marks the D form. Ends that are not written are not given here. pY = N[C@@H](Cc1ccc(OP(=O)(O)O)cc1)C(=O)O

Test system: human p110β
Test: Transcreener ADP formation, human p110β with icSH2 of human p85α, p85β, p55γ
Format: biochemical
Conditions: icSH2 from p85α, p85β or p55γ; 10 μM pY2; Figure 4A
Procedure: Figure 4 cSH2 Is Important for p110β Inhibition In Vitro and in Cells (A) Kinase activity of human p110β and icSH2 wild-type constructs from three human regulatory subunits (p85α, p85β, and p55γ) in the absence and presence of 10 μM PDGFR pY2 (y axis as in Figure 1B). EC50s for wild-type and icSH2 tyrosine mutants, in the absence and presence of 10 μM PDGF pY2, are shown. (B) Western blots of HEK cells transiently expressing wild-type and mutant human p110β/p85α. The membrane was probed with antibodies against PKB, pPKB (pSer473), myc (p110β), FLAG (p85α), and actin. Bar graphs show mean ± SEM (n = 3) of PKB phosphorylation level normalized to wild-type p110β/p85α (WT). The position of the three mutations is mapped on the p110β/p85β structure. […]
The lipid kinase activity was determined using the Transcreener ADP2 FP Assay (BellBrook Labs, Madison, WI) according to manufacturer‟s specifications. This non-radioactive assay measures activity by quantitating the amount of ADP formed. The ADP formed by PI3K competes with fluorescent ADP tracer for binding to an anti-ADP antibody, thereby decreasing fluorescence polarization. […]

## ESDGG[pY]MDMSKDESID[pY]VPMLDMKGDIKYADIE [pY2, bis-phosphopeptide (PDGFR 735–767, with pY740 and pY751)]
  effect of pY2 on activity of human p110β bound to icSH2: significantly stimulated the activity
